Reference: the supplement of paper PMC10307832

How the values were obtained:
Test in all cases: relative viability (nuclei count vs DMSO), 5 days (fraction); higher = more cells survive
[1] = compound: N#CC1(c2ccc(NC(=O)c3cccnc3NCc3ccncc3)cc2)CCCC1 [Apatinib] + Cc1nc(NC(=O)N2CCC[C@H]2C(N)=O)sc1-c1ccnc(C(C)(C)C(F)(F)F)c1 [Alpelisib] (partner 2 µM)
Summary of the method: (§1)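 Lung cancer cell lines in 1536-well plates were dosed by pin tool the day after seeding, either with one drug alone or with a fixed anchor-drug dose plus five library-drug doses (not always all listed) in √10 steps. After 5 days, cells were fixed and their nuclei stained in one step (final 0.05% Triton X-100, 1% formaldehyde, 1 ug/ml Hoechst), then counted on 4× images. Relative viability is the nuclei count in treated wells divided by that in vehicle wells. Values are medians of duplicate plates.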

[2] = compound: N#CC1(c2ccc(NC(=O)c3cccnc3NCc3ccncc3)cc2)CCCC1 [Apatinib] + C[C@]1(O)C[C@@H](c2nc(-c3ccc4ccc(-c5ccccc5)nc4c3)c3c(N)nccn32)C1 [Linsitinib] (partner 1 µM)
Summary of the method: as §1

[3] = compound: N#CC1(c2ccc(NC(=O)c3cccnc3NCc3ccncc3)cc2)CCCC1 [Apatinib] + O=C(CCCCCCC(=O)Nc1ccccc1)NO [Vorinostat] (partner 1 µM)
Summary of the method: as §1

[4] = compound: N#CC1(c2ccc(NC(=O)c3cccnc3NCc3ccncc3)cc2)CCCC1 [Apatinib] + COc1cccc2cc(-c3nc([C@H]4CC[C@H](C(=O)O)CC4)n4ncnc(N)c34)[nH]c12 [OSI-027] (partner 0.5 µM)
Summary of the method: as §1

| Cell Line | relative viability ([1]; first compound 0.08 µM) | relative viability ([1]; first compound 0.253 µM) | relative viability ([1]; first compound 0.8 µM) | relative viability ([1]; first compound 2.53 µM) | relative viability ([1]; first compound 8 µM) | relative viability ([2]; first compound 0.08 µM) | relative viability ([2]; first compound 0.253 µM) | relative viability ([2]; first compound 0.8 µM) | relative viability ([2]; first compound 2.53 µM) | relative viability ([2]; first compound 8 µM) | relative viability ([3]; first compound 0.08 µM) | relative viability ([3]; first compound 0.253 µM) | relative viability ([3]; first compound 0.8 µM) | relative viability ([3]; first compound 2.53 µM) | relative viability ([3]; first compound 8 µM) | relative viability ([4]; first compound 0.08 µM) | relative viability ([4]; first compound 0.253 µM) | relative viability ([4]; first compound 0.8 µM) | relative viability ([4]; first compound 2.53 µM) | relative viability ([4]; first compound 8 µM) |
| --- | --- | --- | --- | --- | --- | --- | --- | --- | --- | --- | --- | --- | --- | --- | --- | --- | --- | --- | --- | --- |
| BEN | 1.04 | 0.92 | 0.983 | 0.862 | 0.727 | 0.864 | 0.933 | 0.88 | 0.81 | 0.699 | 0.584 | 0.62 | 0.609 | 0.589 | 0.536 | 0.283 | 0.277 | 0.3 | 0.299 | 0.317 |
| EMC-BAC-2 | 0.759 | 0.785 | 0.76 | 0.751 | 0.678 | 0.815 | 0.816 | 0.766 | 0.72 | 0.78 | – | 0.51 | 0.432 | 0.29 | 0.362 | 0.413 | 0.389 | 0.357 | 0.338 | 0.291 |
| NCI-H1355 | 0.884 | 0.823 | 0.816 | 0.804 | 0.67 | 0.97 | 0.863 | 0.802 | 0.685 | 0.666 | 0.677 | 0.703 | 0.616 | 0.515 | 0.569 | 0.391 | 0.396 | 0.394 | 0.374 | 0.364 |
| SW 900 | – | – | – | – | – | – | – | – | – | – | 0.577 | 0.586 | 0.482 | 0.355 | 0.454 | 0.563 | 0.605 | 0.497 | 0.545 | 0.412 |
| A-427 | 1.14 | 1.02 | 1.19 | 1.02 | 1 | 1.1 | 1.06 | 1.07 | 1.11 | 1.09 | 0.861 | 0.852 | 0.855 | 0.866 | 0.853 | 0.52 | 0.465 | 0.479 | 0.476 | 0.404 |
| NCI-H1793 | 0.576 | 0.727 | 0.471 | 0.481 | 0.593 | 0.974 | 0.931 | 0.716 | 0.599 | 0.685 | 0.948 | 0.779 | 0.773 | 0.522 | 0.628 | 0.282 | 0.25 | 0.268 | 0.222 | 0.175 |
| NCI-H1563 | 0.967 | 0.982 | 0.929 | 0.93 | 0.804 | 1.28 | 1.22 | 1.13 | 1.12 | 1.03 | – | – | – | – | – | 0.812 | 0.865 | 0.731 | 0.706 | 0.718 |
| EBC-1 | 0.844 | 0.935 | 0.88 | 0.734 | 0.404 | 0.935 | 0.981 | 0.955 | 0.685 | 0.567 | – | – | – | – | – | – | – | – | – | – |
| NCI-H596 | 0.535 | 0.528 | 0.579 | 0.402 | 0.222 | 1.23 | 1.05 | 1.02 | 0.994 | 0.795 | 0.703 | 0.58 | 0.672 | 0.492 | 0.546 | 0.795 | 0.656 | 0.653 | 0.486 | 0.545 |
| NCI-H2228 | 0.785 | 0.738 | 0.648 | 0.542 | 0.527 | 0.708 | 0.501 | 0.521 | 0.629 | 0.629 | 0.535 | 0.703 | 0.538 | 0.55 | 0.639 | 0.472 | 0.761 | 0.547 | 0.429 | 0.448 |
| NCI-H661 | 0.576 | 0.43 | 0.564 | 0.623 | 0.597 | 0.526 | 0.578 | 0.648 | 0.596 | 0.52 | 0.814 | 0.75 | 0.739 | 0.722 | 0.716 | 0.678 | 0.603 | 0.693 | 0.705 | 0.603 |
| 201T | 1.01 | 1.08 | 1.03 | 1.09 | 1.05 | 1.03 | 1.02 | 1.09 | 1.05 | 1.04 | 0.724 | 0.918 | 0.898 | 0.969 | 0.966 | – | 0.763 | 0.718 | 0.723 | 0.751 |
| HARA | 1.07 | 0.837 | 0.852 | 0.735 | 0.795 | 1.04 | 0.983 | 0.994 | 0.995 | 0.882 | 0.599 | 0.556 | 0.523 | – | 0.51 | 0.782 | 0.359 | 0.482 | 0.448 | 0.303 |
| NCI-H3122 | 0.781 | 0.796 | 0.822 | 0.761 | 0.714 | 0.996 | 1.03 | 0.983 | 1.05 | 0.911 | 0.995 | 0.968 | 1.07 | 0.734 | 0.895 | 0.952 | 0.64 | 0.969 | 0.955 | 0.845 |
| ChaGo-K-1 | – | – | – | – | – | – | – | – | – | – | 0.838 | 0.843 | 0.789 | 0.656 | 0.565 | 0.628 | 0.616 | 0.491 | 0.455 | 0.493 |
| NCI-H1648 | – | – | – | – | – | – | – | – | – | – | 0.682 | 0.503 | 0.403 | 0.54 | 0.276 | 0.272 | 0.253 | 0.265 | 0.267 | 0.261 |
| A549 | 0.784 | 0.844 | 0.919 | 0.78 | 0.65 | 0.534 | 0.647 | 0.686 | 0.649 | 0.563 | – | – | – | – | – | – | – | – | – | – |
| NCI-H2342 | – | – | – | – | – | – | – | – | – | – | 0.625 | 0.655 | 0.763 | 0.685 | 0.72 | 0.579 | 0.573 | 0.626 | 0.529 | 0.518 |
| NCI-H1299 | 1.06 | 1.05 | 1.03 | 1.04 | 0.929 | 0.989 | 0.984 | 0.958 | 0.853 | 0.77 | – | – | – | – | – | – | – | – | – | – |
| NCI-H1650 | – | – | – | – | – | – | – | – | – | – | 0.564 | 0.559 | 0.513 | 0.412 | 0.489 | – | 0.776 | 0.456 | 0.463 | 0.541 |
| NCI-H522 | – | – | – | – | – | – | – | – | – | – | 1.02 | 1.02 | 0.875 | 0.672 | 0.816 | 0.731 | 0.752 | 0.703 | 0.72 | 0.691 |
